Calls of active or inactive are those of the source. The rule behind the calls is not given here.
What was measured:
[1] = Metabolic stability in rat liver microsomes assessed as compound remaining after 10 mins; format: ADME, Microsome; conditions: read-out: Stability
[2] = Metabolic stability in mouse liver microsomes assessed as compound remaining after 10 mins; format: ADME, Microsome; conditions: read-out: Stability
[3] = Fraction unbound in mouse serum; format: ADME, cell-free
[4] = target: T1, Metabotropic glutamate receptor 5 (Homo sapiens, UniProt P41594); assay: Positive allosteric modulation of human mGluR5A transfected in HEK293 cells assessed as potentiation of L-glutamate-induced calcium release incubated for 10 mins by FLIPR assay; format: functional, cell-based
Target sequence in this assay (P41594 whole entry): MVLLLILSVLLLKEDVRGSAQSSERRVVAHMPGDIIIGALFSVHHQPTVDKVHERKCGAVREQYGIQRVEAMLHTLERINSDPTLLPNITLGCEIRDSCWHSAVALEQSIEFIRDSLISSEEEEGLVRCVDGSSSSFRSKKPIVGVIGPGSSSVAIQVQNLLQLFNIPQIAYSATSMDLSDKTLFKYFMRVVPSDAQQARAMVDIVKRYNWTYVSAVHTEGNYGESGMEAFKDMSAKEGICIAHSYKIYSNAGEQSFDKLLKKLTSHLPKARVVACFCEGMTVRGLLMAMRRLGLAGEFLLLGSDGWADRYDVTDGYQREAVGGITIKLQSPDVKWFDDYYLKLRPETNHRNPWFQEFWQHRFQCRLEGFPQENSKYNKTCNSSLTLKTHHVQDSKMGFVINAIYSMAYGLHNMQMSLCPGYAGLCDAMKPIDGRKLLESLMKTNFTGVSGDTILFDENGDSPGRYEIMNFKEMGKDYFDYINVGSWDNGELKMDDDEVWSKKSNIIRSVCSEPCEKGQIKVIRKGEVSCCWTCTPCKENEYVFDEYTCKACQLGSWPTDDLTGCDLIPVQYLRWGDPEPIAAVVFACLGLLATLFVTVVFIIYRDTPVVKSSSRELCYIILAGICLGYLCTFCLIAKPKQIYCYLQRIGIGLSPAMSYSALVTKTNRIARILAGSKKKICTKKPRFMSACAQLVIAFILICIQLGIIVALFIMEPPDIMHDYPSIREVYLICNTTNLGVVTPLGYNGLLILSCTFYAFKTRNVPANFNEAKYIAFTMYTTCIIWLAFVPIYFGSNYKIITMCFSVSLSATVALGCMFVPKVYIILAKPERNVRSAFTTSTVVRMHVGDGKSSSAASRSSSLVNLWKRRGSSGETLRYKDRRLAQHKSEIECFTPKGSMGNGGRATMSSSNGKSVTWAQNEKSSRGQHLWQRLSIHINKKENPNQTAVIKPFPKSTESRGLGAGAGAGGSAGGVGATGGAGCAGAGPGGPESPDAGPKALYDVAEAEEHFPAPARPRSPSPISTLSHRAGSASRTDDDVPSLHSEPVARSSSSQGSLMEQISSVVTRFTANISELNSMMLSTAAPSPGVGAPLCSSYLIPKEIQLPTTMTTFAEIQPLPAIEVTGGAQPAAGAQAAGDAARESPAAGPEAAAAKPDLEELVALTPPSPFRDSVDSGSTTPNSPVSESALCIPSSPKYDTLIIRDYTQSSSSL

[5] = Fraction unbound in human serum; format: ADME, cell-free
[6] = Drug uptake in C57BL/6 mouse brain at 3 mg/kg, sc measured after 60 mins; format: ADME, organism-based; conditions: read-out: Drug uptake
[7] = target: T1, Metabotropic glutamate receptor 5; assay: Displacement of [3H]-MPEPy from human mGluR5A transfected in HEK293 cell membranes after 60 mins by microbeta liquid scintillation counting analysis
Target sequence in this assay (P41594 whole entry): as above

[8] = Drug uptake in C57BL/6 mouse brain at 1 mg/kg, sc measured after 60 mins; format: ADME, organism-based; conditions: read-out: Drug uptake
[9] = Ratio of drug uptake in C57BL/6 mouse brain to plasma at 3 mg/kg, sc measured after 60 mins; format: ADME, organism-based; conditions: read-out: BPR
[10] = Metabolic stability in human liver microsomes assessed as compound remaining after 10 mins; format: ADME, Microsome; conditions: read-out: Stability
Mus musculus [11] = assay: Cognitive enhancing effect in sc dosed C57BL/6 mouse assessed as time spent on exploring novel objects administered 1 hr before acquisition session followed by acquisition session for 15 mins by novel object recognition test; format: functional; conditions: C57BL/6, sc, read-out: MED
[12] = Drug uptake in C57BL/6 mouse plasma at 3 mg/kg, sc measured after 60 mins; format: ADME, organism-based
[13] = Ratio of drug uptake in C57BL/6 mouse brain to plasma at 10 mg/kg, sc measured after 60 mins; format: ADME, organism-based; conditions: read-out: BPR
[14] = Drug uptake in C57BL/6 mouse plasma at 1 mg/kg, sc measured after 60 mins; format: ADME, organism-based
[15] = Drug uptake in C57BL/6 mouse brain at 10 mg/kg, sc measured after 60 mins; format: ADME, organism-based; conditions: read-out: Drug uptake
[16] = Drug uptake in C57BL/6 mouse plasma at 10 mg/kg, sc measured after 60 mins; format: ADME, organism-based
[17] = target: T1, Metabotropic glutamate receptor 5; assay: Agonist activity at human mGluR5A transfected in HEK293 cells assessed as induction of calcium release by FLIPR assay; format: functional, cell-based
Target sequence in this assay (P41594 whole entry): as above

[18] = Ratio of drug uptake in C57BL/6 mouse brain to plasma at 1 mg/kg, sc measured after 60 mins; format: ADME, organism-based; conditions: read-out: BPR
[19] = Toxicity in C57BL/6 mouse assessed as induction of convulsions at 30 mg/kg, ip during 3 hrs study; format: organism-based; conditions: in vivo
[20] = target: T1, Metabotropic glutamate receptor 5; assay: Agonist activity at human mGluR5A transfected in HEK293 cells assessed as induction of calcium release up to 3 uM by FLIPR assay; format: functional, cell-based
Target sequence in this assay (P41594 21-1212 limits assumed): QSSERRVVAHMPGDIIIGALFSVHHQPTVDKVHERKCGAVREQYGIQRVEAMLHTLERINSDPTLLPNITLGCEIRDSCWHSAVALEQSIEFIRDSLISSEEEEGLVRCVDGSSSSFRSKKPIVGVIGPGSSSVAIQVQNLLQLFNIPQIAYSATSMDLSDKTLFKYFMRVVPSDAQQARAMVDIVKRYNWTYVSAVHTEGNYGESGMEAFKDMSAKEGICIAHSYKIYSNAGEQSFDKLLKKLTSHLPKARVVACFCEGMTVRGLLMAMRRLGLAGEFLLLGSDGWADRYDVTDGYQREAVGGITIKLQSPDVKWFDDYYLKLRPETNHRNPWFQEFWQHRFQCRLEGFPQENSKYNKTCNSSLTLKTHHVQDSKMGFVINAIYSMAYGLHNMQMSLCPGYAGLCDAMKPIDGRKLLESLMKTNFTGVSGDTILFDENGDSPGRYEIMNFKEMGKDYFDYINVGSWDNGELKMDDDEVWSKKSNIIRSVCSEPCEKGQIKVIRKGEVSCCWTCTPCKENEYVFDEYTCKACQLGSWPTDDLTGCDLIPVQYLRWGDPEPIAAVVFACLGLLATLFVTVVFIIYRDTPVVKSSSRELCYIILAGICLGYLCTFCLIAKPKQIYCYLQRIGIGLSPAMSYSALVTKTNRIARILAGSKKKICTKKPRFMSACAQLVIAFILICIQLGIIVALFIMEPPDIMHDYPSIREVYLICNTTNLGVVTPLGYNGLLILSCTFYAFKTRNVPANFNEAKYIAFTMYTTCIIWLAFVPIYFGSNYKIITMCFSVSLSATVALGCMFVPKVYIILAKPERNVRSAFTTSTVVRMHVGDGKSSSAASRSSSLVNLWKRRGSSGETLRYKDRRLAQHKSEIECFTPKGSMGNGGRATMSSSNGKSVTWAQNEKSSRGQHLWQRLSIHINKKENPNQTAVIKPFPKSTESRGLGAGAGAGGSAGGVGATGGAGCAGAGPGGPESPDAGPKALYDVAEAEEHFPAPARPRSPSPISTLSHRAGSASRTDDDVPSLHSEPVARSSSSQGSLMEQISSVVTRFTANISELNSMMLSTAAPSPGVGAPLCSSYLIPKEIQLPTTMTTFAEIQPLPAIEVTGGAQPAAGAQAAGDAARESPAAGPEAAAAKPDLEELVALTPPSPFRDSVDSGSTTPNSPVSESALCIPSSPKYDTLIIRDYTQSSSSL

[21] = target: T1, Metabotropic glutamate receptor 5; assay: Antagonist activity against human mGluR5A transfected in HEK293 cells assessed as inhibition of L-glutamate-induced calcium release up to 3 uM after 10 mins by FLIPR assay; format: functional, cell-based
Target sequence in this assay (P41594 21-1212 limits assumed): as above

[22] = Fraction unbound in rat serum; format: ADME, cell-free
[23] = Toxicity in C57BL/6 mouse assessed as induction of convulsions at 10 mg/kg, ip during 3 hrs study; format: organism-based; conditions: in vivo
[24] = Toxicity in C57BL/6 mouse assessed as induction of convulsions at 10 mg/kg, ip coadministered with (4R,5R)-5-phenyl-4-(4-(phenylethynyl)pyridin-2-yl)oxazolidin-2-one during 3 hrs study; format: organism-based; conditions: in vivo
[25] = Toxicity in C57BL/6 mouse assessed as induction of convulsions at 3 mg/kg, ip during 3 hrs study; format: organism-based; conditions: in vivo
Mus musculus [26] = assay: Ex vivo receptor occupancy at mGluR5A in C57BL/6 mouse at 10 and 30 mg/kg; format: functional, organism-based
[27] = target: T1, Metabotropic glutamate receptor 5; assay: Negative allosteric modulation of human mGluR5A transfected in HEK293 cells assessed as inhibition of L-glutamate-induced calcium release after 10 mins by FLIPR assay; format: functional, cell-based
Target sequence in this assay (P41594 whole entry): as the sequence (P41594 whole entry) above

[28] = target: T1, Metabotropic glutamate receptor 5; assay: Displacement of [3H]-MPEP from human mGluR5A transfected in HEK293 cells after 60 mins by microbeta liquid scintillation counting analysis; format: cell-based
Target sequence in this assay (P41594 whole entry): as above

[29] = Toxicity in C57BL/6 mouse assessed as induction of convulsions at 1 mg/kg, ip during 3 hrs study; format: organism-based; conditions: in vivo

Row | Structure (SMILES) | remaining at 10 min [1] [%] | fraction unbound [3] | EC50 [4] [nM] | fraction unbound [5] | Ki [7] [nM] | remaining at 10 min [10] [%] | EC50 [17] [nM] | other results
1 | O=C1N[C@H](c2cncc(C#Cc3ncccc3F)c2)[C@@H](c2ccc(F)cc2)O1 | 100 | 0.13 | 10 | 0.076 | 14 | 100 | > 3000 | remaining at 10 min [2]: 100%; concentration at 1 h [6]: 182 nM; concentration at 1 h [8]: 56 nM; Kp at 1 h [9]: 0.14; minimal effective dose (Mus musculus [11]): 10 mg/kg; concentration at 1 h [12]: 1430 nM; Kp at 1 h [13]: 0.1 to 0.11; concentration at 1 h [14]: 375 nM; concentration at 1 h [15]: 542 nM; concentration at 1 h [16]: 5250 nM; Kp at 1 h [18]: 0.15; Activity [19]: Non-Toxic
2 | O=C1N[C@H](c2cncc(C#Cc3ccccn3)c2)[C@@H](c2ccc(F)cc2)O1 | 100 | 0.069 | 25 | 0.064 | 23 | 97 | > 3000 | remaining at 10 min [2]: 89%
3 | O=C1N[C@H](c2cncc(C#Cc3ccncc3)c2)[C@@H](c2ccc(F)cc2)O1 | 65 | 0.1 | 14 | 0.14 | 16 | 70 | > 3000 | remaining at 10 min [2]: 69%
4 | O=C1N[C@H](c2ccnc(C#Cc3ccccc3)c2)[C@@H](c2ccccc2)O1 |  | 0.021 | 1.5 | 0.005 | 2.1 |  |  | Activity [20]: inactive; inhibition [21]: inactive; fraction unbound [22]: 0.012
5 | O=C1N[C@H](c2cncc(C#Cc3cncc(F)c3)c2)[C@@H](c2ccc(F)cc2)O1 | 85 |  |  | 0.035 |  | 97 | 315 | remaining at 10 min [2]: 77%; Activity [23]: Toxic; Activity [24]: Non-Toxic
6 | O=C1N[C@H](c2cncc(C#Cc3ccccc3)c2)[C@@H](c2cccc(F)c2F)O1 |  |  | 4.2 |  | 1.8 |  | > 3000 | 
7 | O=C1N[C@H](c2cncc(C#Cc3ccccc3)c2)[C@@H](c2cc(F)cc(F)c2)O1 |  |  | 5.5 |  | 1.4 |  | > 3000 | 
8 | O=C1N[C@H](c2cncc(C#Cc3ccccc3)c2)[C@@H](c2ccc(F)cc2F)O1 |  |  | 1.2 |  | 1.4 |  | > 3000 | Activity [25]: Toxic
9 | O=C1N[C@H](c2cncc(C#Cc3ccccc3)c2)[C@@H](c2cc(F)ccc2F)O1 |  |  |  |  |  |  |  | Activity (Mus musculus [26]): Active; Activity [19]: Non-Toxic
10 | O=C1N[C@H](c2cccc(C#Cc3ccccc3)n2)[C@@H](c2ccccc2)O1 |  | 0.011 | 9.4 | 0.009 | 44 |  |  | Activity [20]: inactive; inhibition [21]: inactive; fraction unbound [22]: 0.009; Activity [19]: Non-Toxic
11 | O=C1N[C@H](c2cncc(C#Cc3ccccc3)c2)[C@@H](c2ccc(F)c(F)c2)O1 |  |  | 0.2 |  | 2.8 |  | 50 | 
12 | O=C1N[C@H](c2cncc(C#Cc3ccccc3)c2)[C@@H](c2ccccc2F)O1 |  |  | 1.5 |  | 1.9 |  | > 3000 | 
13 | O=C1N[C@H](c2cncc(C#Cc3ccccc3)c2)[C@@H](c2cccc(Cl)c2)O1 |  |  | 0.9 |  | 1.8 |  | > 3000 | 
14 | O=C1N[C@H](c2cncc(C#Cc3ccccc3)c2)[C@@H](c2c(F)cccc2F)O1 |  |  | > 3000 |  | 2.7 |  | > 3000 | IC50 [27]: 27 nM
15 | O=C1N[C@H](c2cccc(C#Cc3ccccc3)c2)[C@@H](c2ccccc2)O1 |  | 0.001 | 38 | < 0.001 |  |  |  | Activity [20]: inactive; inhibition [21]: inactive; fraction unbound [22]: 0.001; Ki [28]: 8.9 nM
16 | O=C1N[C@H](c2cncc(C#Cc3ccccc3)c2)[C@@H](c2ccccc2)O1 |  | 0.047 | 0.7 | 0.008 | 1.4 |  | > 3000 | Activity [20]: inactive; inhibition [21]: inactive; fraction unbound [22]: 0.007; Activity [19]: Non-Toxic
17 | O=C1N[C@H](c2cncc(C#Cc3ccccc3)c2)[C@@H](c2ccc(F)cc2)O1 | 92 | 0.009 | 0.4 | 0.004 | 1.7 | 81 | 504 | remaining at 10 min [2]: 80%; Activity [29]: Toxic
18 | O=C1N[C@H](c2cncc(C#Cc3ccccc3)c2)[C@@H](c2ccccc2Cl)O1 [BMS-984923] |  |  | > 3000 |  |  |  | > 3000 | 
19 | O=C1N[C@H](c2cncc(C#Cc3cccnc3)c2)[C@@H](c2ccc(F)cc2)O1 | 85 | 0.11 | 3.3 | 0.082 | 32 | 76 | 273 | remaining at 10 min [2]: 87%
20 | O=C1N[C@H](c2cncc(C#Cc3ccccc3)c2)[C@@H](c2cccc(F)c2)O1 |  |  |  |  |  |  |  | Activity [25]: Toxic
21 | O=C1N[C@H](c2cncc(C#Cc3ccnc(F)c3)c2)[C@@H](c2ccc(F)cc2)O1 | 100 | 0.11 | 4.8 | 0.034 | 15 | 92 | > 3000 | Activity [23]: Toxic
22 | O=C1N[C@H](c2cncc(C#Cc3ccccc3)c2)[C@@H](c2ccc(Cl)cc2)O1 |  |  | 0.6 |  | 2.2 |  | 333 | 
23 | O=C1N[C@H](c2cc(C#Cc3ccccc3)ccn2)[C@@H](c2ccccc2)O1 |  | 0.01 |  | 0.006 |  |  |  | Activity [20]: inactive; inhibition [21]: inactive; fraction unbound [22]: 0.009

From ChEMBL document CHEMBL4477253, “Oxazolidinone-based allosteric modulators of mGluR5: Defining molecular switches to create a pharmacological tool box” (Bioorg Med Chem Lett, 2016)
